# Literature values as cited in patent US9961900B2, “Herbicide formulations” (priority 2012, dated 2018).
# Where two headings read alike, the source gives them in different places.
# Key:
# [1] = not given; remark: listed apart in the source
# [2] = not given; remark: listed apart in the source
smiles,measurement,setting,value
COc1nc(C)nc(NC(=O)NS(=O)(=O)c2ccccc2Cl)n1 [chlorsulfuron],Photolytic stability DT50,pH 7,DT50: 18.8 d
same,Aqueous hydrolysis (DT50),[1]; at pH 5,1 days
same,Aqueous hydrolysis (DT50),[1]; at pH 7,Stable
"CCOC(=O)C(C)Oc1ccc(Oc2nc3ccc(Cl)cc3s2)cc1 (racemic) [fenthiaprop-ethyl, ethyl (RS)-2-[4-(6-chloro-1,3-benzothiazol-2-yloxy)phenoxy]propionate]",Solubility in acetone,[2],"In acetone, ethyl acetate, toluene, >500 g/kg;"
same,Solubility in cyclohexane,[2],> 40 g/kg
same,Solubility in ethanol,[2],> 50 mg/mL
same,Solubility in ethyl acetate,[2],"In acetone, ethyl acetate, toluene, >500 g/kg;"
same,Solubility in n-octanol,[2],> 50 mg/mL
same,Solubility in toluene,[2],"In acetone, ethyl acetate, toluene, >500 g/kg;"
same,Solubility in water,[2],Water: 0.8 mg/L
"CCCC(=NOCC)C1=C(O)C[C@@H](C[C@@H](C)SCC)CC1=O (racemic) [sethoxydim, (5RS)-2-[(EZ)-1-(ethoxyimino)butyl]-5-[(2RS)-2-(ethylthio)propyl]-3-hydroxycyclohex-2-en-1-one]",Aqueous photolysis DT50,pH 7,Aqueous photolysis DT50 at pH 7: 0.02 days ^+
Cc1ccn2nc(S(=O)(=O)Nc3c(F)cccc3F)nc2n1 [flumetsulam],Photolytic stability DT50,pH 7,DT50: 270 d
C[C@@H](Oc1ccc(Oc2cnc3cc(Cl)ccc3n2)cc1)C(=O)OCC1CCCO1 (stereo partly shown) [quizalofop-P-tefuryl],Aqueous photolysis DT50,pH 7,Aqueous photolysis DT50 at pH 7: 1.0 days
same,Aqueous hydrolysis (DT50),[1]; 20° C. and pH 7,Aqueous hydrolysis DT50 at 20 °C and pH 7: 18.2 days
same,Hydrolysis DT50,"[1]; pH 5.1, 22° C.",8.2 days
same,Hydrolysis DT50,"[1]; pH 9.2, 22° C.",0.3 days
COc1cc(OC)nc(NC(=O)NS(=O)(=O)c2ncccc2C(=O)N(C)C)n1 [nicosulfuron],Photolytic stability DT50,at pH 7,DT50: 202 d
same,Aqueous hydrolysis (DT50),[1]; at pH 5,15 days
same,Aqueous hydrolysis (DT50),[1]; at pH 7,Stable
"CCCC(=NOCC)C1=C(O)C[C@@H]([C@H]2CCCSC2)CC1=O (racemic) [cycloxydim, (5RS)-2-[(EZ)-1-(ethoxyimino)butyl]-3-hydroxy-5-[(3RS)-thian-3-yl]cyclohex-2-en-1-one]",Aqueous photolysis DT50,pH 7,Aqueous photolysis DT50 at pH 7: 0.05 days ^+
"CC(C)=NOCCOC(=O)[C@@H](C)Oc1ccc(Oc2cnc3cc(Cl)ccc3n2)cc1 [propaquizafop, 2-isopropylideneaminooxyethyl (R)-2-[4-(6-chloroquinoxalin-2-yloxy)phenoxy]propionate]",Hydrolytic DT50,"[1]; pH 5, 25° C.",10.5 days
same,Hydrolytic DT50,"[1]; pH 7, 25° C.",32.0 days
same,Hydrolytic DT50,"[1]; pH 9, 25° C.",0.538 days
COc1cnc(OC)n2nc(NS(=O)(=O)c3c(OCC(F)F)cccc3C(F)(F)F)nc12 [penoxsulam],Photolytic stability DT50,pH 7,DT50: 2 d (at pH 7)
same,Aqueous hydrolysis,[1]; at pH 7 and 20° C.,Stable (at pH 7 and 20° C.)
"C[C@@H](Oc1ccc(Oc2ncc(C(F)(F)F)cc2Cl)cc1)C(=O)O [haloxyfop-P, (R)-2-{4-[3-chloro-5-(trifluoromethyl)-2-pyridyloxy]phenoxy}propionic acid]",Aqueous photolysis DT50,pH 7,Aqueous photolysis DT50 at pH 7: 12 days
"CCS[C@H](C)C[C@H]1CC(=O)C(C(CC)=NOC/C=C/Cl)=C(O)C1 (racemic) [clethodim, (5RS)-2-{(1EZ)-1-[(2E)-3-chloroallyloxyimino]propyl}-5-[(2RS)-2-(ethylthio)propyl]-3-hydroxycyclohex-2-en-1-one]",Aqueous photolysis DT50,"pH 5, 25° C.",1.6 days
same,Aqueous photolysis DT50,"pH 7, 25° C.",Aqueous photolysis DT50 at pH 7: 5.45 days (25° C.)
same,Aqueous photolysis DT50,"pH 9, 25° C.",7.79 days
"CCOC(=O)C(C)Oc1ccc(Oc2cnc3cc(Cl)ccc3n2)cc1 (racemic) [quizalofop-ethyl, ethyl (2RS)-2-[4-(6-chloroquinoxalin-2-yloxy)phenoxy]propionate]",Stability in aqueous media,[1]; pH 3,Stable at pH 3-7 ^+
"C=CCO/N=C(\CCC)C1=C(O)CC(C)(C)C(C(=O)OC)C1=O (racemic) [aloxydim, methyl (1RS)-3-[(E)-1-(allyloxyimino)butyl]-4-hydroxy-6,6-dimethyl-2-oxocyclohex-3-enecarboxylate]",Aqueous photolysis DT50,pH 7,Aqueous photolysis DT50 at pH 7: 0.22 days ^+
